In patent publication US10899747B2, “Biaryl piperidine amide compounds and methods of use thereof” (Athenex, Inc., priority 2017, dated 2021):
pIC50: −log10 of the molar value.

tested on: IL-2; assay: PHA-IL2 (cell activation and cytokine analysis); format: cell-based; conditions: 50% inhibition concentration class
Description: Cells to be tested may include, but are not limited to, a) Jurkat (a transformed human T cell leukemia), b) whole blood isolated from human or rodent sources, c) peripheral blood mononuclear cells (PBMC) freshly isolated from human or rodent whole blood, or d) purified fractions of PBMC (e.g., CD4 T cells). Cells are plated in 96-well plates at a final density of 1.0-2.0×10^6 cells/ml in 150 ul of assay medium (RPMI+0.5% fetal calf serum). Test compounds are included at a final concentration of ≤20 uM and generally pre-incubated with cells for 30 minutes prior to stimulation. An appropriate stimulus is added, including but not limited to, a) phytohemagglutinin (PHA), b) phorbol myristate acetate (PMA) and ionomycin, or c) stimulatory antibodies to the T cell receptor (TCR) complex (e.g., anti-CD3ε) and CD28. Cell cultures are stimulated for 24-48 hours in a humidified incubator (37 degrees C./5% CO2). A fraction of the culture supernatant is than harvested from each well and assayed for the presence of appropriate cytokine using standard ELISA. Cytokines to be analyzed may include IL-2, IL-4, IL-10, IL-17, IL-22, IFNγ, and/or TNFα. If required, the number of cytokine producing cells can be determined using intracellular staining and flow cytometry. […]

`O=C(COc1cccnc1-c1ccc(F)cc1O)N1CCC(CCc2ccncc2)CC1` [Compound 397] and `O=C(COc1cccnc1-c1ccc(F)cc1O)N1CCC(CCc2ccc3c(c2)OCCCO3)CC1` [Compound 338] fall in the same range of pIC50: 5.00 to 6.00 for the first, 5.00 to 6.00 for the second.

`N#Cc1ccc(-c2ccccc2OCC(=O)N2CCC(CCc3ccccc3)CC2)cc1` [Compound 269] and `N#Cc1ccc(-c2ccccc2OCC(=O)N2CCC(CCc3cccc(OC4CC4)c3)CC2)cc1` [Compound 406] cannot be ordered by pIC50: greater than 6.00 for the first, greater than 6.00 for the second.

First: CCN(CC)C(=O)c1ccc(-c2ccccc2OCC(=O)N2CCC(CCc3ccc4c(c3)OCO4)CC2)cc1 [Compound 168]
Second: O=C(O)c1ccc(-c2ccccc2OCC(=O)N2CCC(CCc3ccc4c(c3)OCO4)CC2)cc1 [Compound 157]
The pIC50 of the first is higher: 5.00 to 6.00 for the first, 4.30 to 5.00 for the second.

`COc1cccc(-c2ccccc2OCC(=O)N2CCC(CCc3ccc4c(c3)OCO4)CC2)c1` [Compound 163] and `CC(C)Oc1cccc(-c2ccccc2OCC(=O)N2CCC(CCc3ccc4c(c3)OCO4)CC2)c1` [Compound 243] fall in the same range of pIC50: 5.00 to 6.00 for the first, 5.00 to 6.00 for the second.

`N#Cc1ccc(-c2ncccc2OCC(=O)N2CCC(CCc3ccccc3)CC2)cn1` [Compound 334] and `O=C(COc1cccnc1-c1ccc2[nH]ccc2c1)N1CCC(CCc2ccccc2)CC1` [Compound 376] fall in the same range of pIC50: 5.00 to 6.00 for the first, 5.00 to 6.00 for the second.

`O=C(COc1ccccc1-c1ccccc1O)N1CCC(CCc2ccc3c(c2)OCCO3)CC1` [Compound 295] and `COc1ccccc1-c1ccccc1OCC(=O)N1CCC(CCc2ccc3c(c2)OCO3)CC1` [Compound 180] fall in the same range of pIC50: 5.00 to 6.00 for the first, 5.00 to 6.00 for the second.

`CC(C)Oc1cccc(CCC2CCN(C(=O)COc3ccccc3-c3ccc(F)cc3O)CC2)c1` [Compound 400] and `CC(C)Oc1cccc(CCC2CCN(C(=O)COc3ccccc3-c3ccc(C#N)cc3O)CC2)c1` [Compound 443] cannot be ordered by pIC50: greater than 6.00 for the first, greater than 6.00 for the second.

`N#Cc1ccc(OCC(=O)N2CCC(CCc3cccc(OC(F)F)c3)CC2)c(-c2ccc(F)cc2O)c1` [Compound 437] and `CC(C)Oc1cccc(CCC2CCN(C(=O)COc3ccc(C#N)cc3-c3ccc(F)cc3O)CC2)c1` [Compound 399] cannot be ordered by pIC50: greater than 6.00 for the first, greater than 6.00 for the second.

Compared with `COc1cccc(CCC2CCN(C(=O)COc3ccc(S(N)(=O)=O)cc3-c3ccc(F)cc3O)CC2)c1` [Compound 386], `CC(C)NC(=O)c1ccc(OCC(=O)N2CCC(CCc3ccccc3)CC2)c(-c2ccc(F)cc2O)c1` [Compound 319] is lower in pIC50: 5.00 to 6.00 for the first, 4.30 to 5.00 for the second.

`O=C(COc1ccccc1-c1ccc(F)cc1)N1CCC(CCc2ccc3c(c2)OCCCO3)CC1` [Compound 230] and `N#Cc1ccc(-c2ccccc2OCC(=O)N2CCC(CCc3ccc4c(c3)OCCO4)CC2)cc1` [Compound 291] cannot be ordered by pIC50: greater than 6.00 for the first, greater than 6.00 for the second.

First: Cc1cccc(-c2ccccc2OCC(=O)N2CCC(CCc3ccc4c(c3)OCO4)CC2)c1 [Compound 167]
Second: O=C(COc1ccccc1-c1cccc(C(F)(F)F)c1)N1CCC(CCc2ccc3c(c2)OCO3)CC1 [Compound 204]
The pIC50 of the first is lower: 5.00 to 6.00 for the first, greater than 6.00 for the second.

`N#Cc1ccc(-c2ccccc2C2CC2C(=O)N2CCC(CCc3ccccc3)CC2)cc1` (stereo not shown) [Compound 404] and `O=C(COc1ccccc1-c1ccc(F)cc1O)N1CCC(CCc2ccccc2)CC1` [Compound 348] cannot be ordered by pIC50: greater than 6.00 for the first, greater than 6.00 for the second.

First: N#CCc1ccc(-c2ccccc2OCC(=O)N2CCC(CCc3ccc4c(c3)OCO4)CC2)cc1 [Compound 197]
Second: O=C(COc1ccccc1-c1ccc(-c2ccccc2)cc1)N1CCC(CCc2ccc3c(c2)OCO3)CC1 [Compound 218]
The pIC50 of the first is higher: greater than 6.00 for the first, 5.00 to 6.00 for the second.

First: CC(C)Oc1cccc(CCC2CCN(C(=O)COc3cccnc3-c3ccc(C#N)cc3)CC2)c1 [Compound 411]
Second: C#CCOc1ccc(C(=O)c2ccc(-c3ccccc3OCC(=O)N3CCC(CCc4cccc(OC(C)C)c4)CC3)cc2)cc1 [Compound 419]
The pIC50 of the first is higher: greater than 6.00 for the first, 5.00 to 6.00 for the second. The first is the more potent here.

First: O=C(COc1ccccc1-c1ccc(Cl)nc1)N1CCC(CCc2ccc(O)cc2)CC1 [Compound 283]
Second: O=C(COc1ccccc1-c1ccc(Cl)nc1)N1CCC(CCc2ccc3c(c2)OCCO3)CC1 [Compound 292]
The pIC50 of the first is higher: greater than 6.00 for the first, 5.00 to 6.00 for the second. The first is the more potent here.

`N#Cc1ccc(-c2ccccc2OCC(=O)N2CCC(CCc3cccc4c3OCO4)CC2)cc1` [Compound 299] and `Cc1cc2c(cc1CCC1CCN(C(=O)COc3ccccc3-c3ccc(C#N)cc3)CC1)OCO2` [Compound 298] cannot be ordered by pIC50: greater than 6.00 for the first, greater than 6.00 for the second.

First: CC(Oc1ccccc1-c1ccccc1)C(=O)N1CCC(CCc2ccc3c(c2)OCCCO3)CC1 (stereo not shown) [Compound 209]
Second: CC(Oc1ccccc1-c1ccccc1)C(=O)N1CCC(CCc2ccc3c(c2)OCO3)CC1 (stereo not shown) [Compound 153]
The pIC50 of the first is higher: greater than 6.00 for the first, 4.30 to 5.00 for the second.

`CC1Oc2ccc(CCC3CCN(C(=O)COc4ccccc4-c4ccc(C#N)cc4)CC3)cc2OC1C` (stereo not shown) [Compound 263] and `CC1Oc2ccc(CCC3CCN(C(=O)COc4ccccc4-c4ccc(Cl)nc4)CC3)cc2OC1C` (stereo not shown) [Compound 265] cannot be ordered by pIC50: greater than 6.00 for the first, greater than 6.00 for the second.

First: O=C(COc1ccccc1-c1ccccc1)N1CCC(/C=C/c2ccc3c(c2)OCO3)CC1 [Compound 253]
Second: Nc1ccc(/C=C/C2CCN(C(=O)COc3ccccc3-c3ccccc3)CC2)cn1 [Compound 252]
The pIC50 of the first is higher: greater than 6.00 for the first, 4.30 to 5.00 for the second. The first is the more potent here.

`O=C(COc1cccnc1-c1ccc2[nH]ncc2c1)N1CCC(CCc2ccc3c(c2)OCO3)CC1` [Compound 328] and `O=C(COc1cccnc1-c1ccc(F)nc1)N1CCC(CCc2ccc3c(c2)OCO3)CC1` [Compound 340] fall in the same range of pIC50: 5.00 to 6.00 for the first, 5.00 to 6.00 for the second.

First: COc1ccc(CCC2(O)CCN(C(=O)COc3ccccc3-c3ccccc3)CC2)cc1 [Compound 175]
Second: CCOc1ccc(CCC2CCN(C(=O)COc3ccccc3-c3ccc(F)cc3O)CC2)cc1 [Compound 309]
The pIC50 of the first is lower: 4.30 to 5.00 for the first, greater than 6.00 for the second. The second is the more potent here.

Compared with `O=C(COc1ccccc1-c1ccc(F)cc1O)N1CCC(CCc2cccc(OCCN3CCOCC3)c2)CC1` [Compound 355], `Cc1ccc(F)cc1CCC1CCN(C(=O)COc2ccccc2-c2ccc(F)cc2O)CC1` [Compound 306] is higher in pIC50: 5.00 to 6.00 for the first, greater than 6.00 for the second.

First: O=C(NCCO)c1cccc(-c2ccccc2OCC(=O)N2CCC(CCc3ccc4c(c3)OCO4)CC2)c1 [Compound 172]
Second: Cc1cc(F)ccc1-c1ccccc1OCC(=O)N1CCC(CCc2ccc3c(c2)OCO3)CC1 [Compound 262]
The pIC50 of the first is lower: 4.30 to 5.00 for the first, 5.00 to 6.00 for the second.

Compared with `CN(C)CCCOc1ccc(-c2ccccc2OCC(=O)N2CCC(CCc3ccc4c(c3)OCO4)CC2)cn1` [Compound 171], `O=C(COc1ccccc1-c1ccc2c(c1)OCCO2)N1CCC(CCc2ccc3c(c2)OCO3)CC1` [Compound 173] is higher in pIC50: 4.30 to 5.00 for the first, 5.00 to 6.00 for the second. The second is the more potent here.

First: Cc1cc(F)ncc1-c1ncccc1OCC(=O)N1CCC(CCc2ccccc2)CC1 [Compound 333]
Second: N#Cc1ccc(-c2cc(C(=O)NCCO)ccc2OCC(=O)N2CCC(CCc3ccccc3)CC2)cc1 [Compound 322]
The pIC50 of the first is lower: 4.30 to 5.00 for the first, 5.00 to 6.00 for the second. The second is the more potent here.

`O=C(CCc1ccccc1-c1ccc(F)cc1)N1CCC(CCc2cc(F)cc(F)c2)CC1` [Compound 223] and `CN(C)CCNC(=O)c1ccc(OCC(=O)N2CCC(CCc3ccccc3)CC2)c(-c2ccc(C#N)cc2)c1` [Compound 325] fall in the same range of pIC50: 5.00 to 6.00 for the first, 5.00 to 6.00 for the second.

`N#Cc1ccc(-c2cc(C(=O)NC3CCOCC3)ccc2OCC(=O)N2CCC(CCc3ccccc3)CC2)cc1` [Compound 368] and `N#Cc1ccc(-c2cc(C(=O)N3CCOCC3)ccc2OCC(=O)N2CCC(CCc3ccccc3)CC2)cc1` [Compound 318] fall in the same range of pIC50: 5.00 to 6.00 for the first, 5.00 to 6.00 for the second.

`N#Cc1ccc(OCC(=O)N2CCC(CCc3cccc(O)c3)CC2)c(-c2ccc(C(=O)c3ccccc3)cc2)c1` [Compound 417] gave a pIC50 greater than 6.00.
